Assay results as given in patent US12640239B2, “Functional biomarkers for statin therapy in age-related macular degeneration (AMD)” (APELIOTUS TECHNOLOGIES, INC., priority 2017, dated 2026).

Columns and labels:
Assay type in all cases: in vivo, human
AMD patients [1] = assay: Dark adaptation testing, rod intercept (RI) time, AdaptDx Dark Adaptometer Extended Test protocol; conditions: for Improvement in RI time: Patient 2, atorvastatin 80 mg/day, July 2018 vs January 2015
From the text: Dark adaptation is preferably measured using devices known in the art, for example as described in U.S. Pat. No. 7,494,222. […] Briefly, the methods of the prior art as described therein, while sitting in complete or near-complete darkness the subject is first exposed to a bright photobleaching light to photobleach one or more of the visual pigments. This is followed by exposure to a series of dim stimulus lights to track visual sensitivity recovery from the photobleach. The intensity of the stimulus lights is gradually […] (generally in a staircase fashion), and the subject indicates whether each stimulus light presentation is detectable (e.g., by pushing a response button) or not detectable (e.g., by failing to push the response button). The just-detectible stimulus light intensity and the time at which it is detected are periodically recorded to generate a dark adaptation threshold curve. Finally, the speed of dark adaption is characterized by a parameter extracted from the threshold curve such as the rod intercept time or the rod-cone break time.
(§1) Table 2 provides detailed information regarding patients 1 to 7, including the baseline diagnosis (diagnosis made when starting statin therapy), ending diagnosis (the diagnosis made on the date of the last referenced evaluation), the results of evaluations performed on each patient, and whether the patient responded to statin therapy. The dark adaptation data in this Example is the rod intercept time (or RI time) reported in minutes. In this Example, the dark adaptation data was collected using the AdaptDx® Dark Adaptometer (MacuLogix, Middletown, PA) running its standard Extended Test protocol. […] Data is automatically analyzed by the AdaptDx Dark Adaptometer to provide an RI time based on recovery to a criterion sensitivity level of 5×10^−3 scotopic cd/m^2. […] The visual acuity data was collected using a standard Snellen or ETDRS eye chart with the results presented using the standard 20/20 vision scale. Drusen resolution was determined by evaluation of fundus and OCT imaging by qualified clinicians experienced in AMD evaluation. Fundus and OCT imaging data was collected using the Heidelberg Engineering Spectralis® SD-OCT (Heidelberg, Germany) or the Karl Zeiss Meditec Cirrus® HD-OCT (Jena, Germany), in both cases running standard protocols with automated data analysis performed by the instruments.

AMD patients [2] = assay: Visual acuity, standard Snellen or ETDRS eye chart
From the text: as §1

AMD patients [3] = assay: Fundus and OCT imaging: drusen resolution, retinal thickness and volume; conditions: for Average retinal thickness / Average total volume (retina) / Retinal thickness, maximum / Retinal thickness, minimum: Patient 2, atorvastatin 80 mg/day; for OCT retinal imaging finding: Patient 5, atorvastatin 80 then 20 mg/day, April 2018 vs January 2014
From the text: The patient was asked to report any perceived changes in visual function during the course of the treatment. […] The self-reported improvement was confirmed at months 15 and 22 of treatment. […] The resolution of the drusen was confirmed by fundus photography and optical coherence tomography (OCT) imaging.
as §1
The baseline diagnosis and ending diagnosis are the result of clinical assessment by qualified clinicians experienced in evaluation of AMD patients. The clinical assessment was carried out utilizing standard ophthalmic testing, such as, but not limited to, slit-lamp biomicroscopy (including looking for evidence of drusen and pigmentary changes), fundus and OCT imaging (including looking for evidence of drusen and pigmentary changes and calculation of retinal volume and retinal thickness), and testing with a Snellen or ETDRS eye chart (including looking for visual acuity changes that might indicate a change in disease status). Dark adaptation results were not used in the clinical assessment of the baseline or ending diagnosis.

[4] = Patient #4, atorvastatin 80 mg/day, OD, month 0 (May 2018), baseline
[5] = Patient #4, atorvastatin 80 mg/day, OS, month 0 (May 2018), baseline
[6] = Patient #6, atorvastatin 80 mg/day, OD, month 9 (August 2018)

Compound: CC(C)c1c(C(=O)Nc2ccccc2)c(-c2ccccc2)c(-c2ccc(F)cc2)n1CC[C@@H](O)C[C@@H](O)CC(=O)O [atorvastatin]
- Improvement in RI time (AMD patients [1]; OD): 1.67 min
- Improvement in RI time (AMD patients [1]; OS): 2.60 min
- Change in RI time (AMD patients [1]; Patient 5, atorvastatin 80 then 20 mg/day, pravastatin 20 mg/day from April 2018, left eye, June 2018 vs October 2015): essentially unchanged
- Increase in RI time (AMD patients [1]; Patient 5, atorvastatin 80 then 20 mg/day, pravastatin 20 mg/day from April 2018, right eye, June 2018 vs October 2015): 7.51 min
- RI (rod intercept time) (AMD patients [1]; Patient #1, atorvastatin 20 to 80 mg/day, OD, month 24 (July 2015)): RI > 20 minutes
- RI (rod intercept time) (AMD patients [1]; Patient #1, atorvastatin 20 to 80 mg/day, OD, month 60 (July 2018)): RI > 20 minutes
- RI (rod intercept time) (AMD patients [1]; Patient #1, atorvastatin 20 to 80 mg/day, OS, month 24 (July 2015)): RI = 17.13 minutes
- RI (rod intercept time) (AMD patients [1]; Patient #1, atorvastatin 20 to 80 mg/day, OS, month 60 (July 2018)): RI > 20 minutes
- RI (rod intercept time) (AMD patients [1]; Patient #2, atorvastatin 80 mg/day, OD, month 24 (January 2015)): RI = 18.72 minutes
- RI (rod intercept time) (AMD patients [1]; Patient #2, atorvastatin 80 mg/day, OD, month 66 (July 2018)): RI = 17.05 minutes
- RI (rod intercept time) (AMD patients [1]; Patient #2, atorvastatin 80 mg/day, OS, month 24 (January 2015)): RI = 9.88 minutes
- RI (rod intercept time) (AMD patients [1]; Patient #2, atorvastatin 80 mg/day, OS, month 66 (July 2018)): RI = 7.28 minutes
- RI (rod intercept time) (AMD patients [1]; Patient #3, atorvastatin 80 mg/day, OD, month 8 (June 2017)): RI > 20 minutes
- RI (rod intercept time) (AMD patients [1]; Patient #3, atorvastatin 80 mg/day, OD, month 20 (June 2018)): RI > 20 minutes
- RI (rod intercept time) (AMD patients [1]; Patient #3, atorvastatin 80 mg/day, OS, month 8 (June 2017)): RI > 20 minutes
- RI (rod intercept time) (AMD patients [1]; Patient #3, atorvastatin 80 mg/day, OS, month 20 (June 2018)): RI > 20 minutes
- RI (rod intercept time) (AMD patients [1]; [4]): RI > 20 minutes
- RI (rod intercept time) (AMD patients [1]; Patient #4, atorvastatin 80 mg/day, OD, month 4 (September 2018)): RI > 20 minutes
- RI (rod intercept time) (AMD patients [1]; [5]): RI > 20 minutes
- RI (rod intercept time) (AMD patients [1]; Patient #4, atorvastatin 80 mg/day, OS, month 4 (September 2018)): RI > 20 minutes
- RI (rod intercept time) (AMD patients [1]; Patient #5, atorvastatin 80 mg/day (suspended January 2015-February 2016), then 20 mg/day, pravastatin 20 mg/day from April 2018, OD, month 52 (June 2018)): RI = 17.19 minutes
- RI (rod intercept time) (AMD patients [1]; Patient #5, atorvastatin 80 mg/day (suspended January 2015-February 2016), then 20 mg/day, pravastatin 20 mg/day from April 2018, OS, month 52 (June 2018)): RI = 10.81 minutes
- RI (rod intercept time) (AMD patients [1]; Patient #5, atorvastatin 80 mg/day January 2014 to January 2015, therapy suspended until February 2016, OD, month 21 (October 2015)): RI = 9.68 minutes
- RI (rod intercept time) (AMD patients [1]; Patient #5, atorvastatin 80 mg/day January 2014 to January 2015, therapy suspended until February 2016, OS, month 21 (October 2015)): RI = 11.04 minutes
- RI (rod intercept time) (AMD patients [1]; Patient #6, atorvastatin 80 mg/day from November 2017, OD, month −3 (August 2017), before initiation): RI = 5.75 minutes
- RI (rod intercept time) (AMD patients [1]; [6]): RI = 2.55 minutes
- RI (rod intercept time) (AMD patients [1]; Patient #7, atorvastatin 10 to 20 mg/day, OD, month 0 (April 2016), baseline): RI > 20 minutes
- RI (rod intercept time) (AMD patients [1]; Patient #7, atorvastatin 10 to 20 mg/day, OD, month 27 (July 2018)): RI > 20 minutes
- RI (rod intercept time) (AMD patients [1]; Patient #7, atorvastatin 10 to 20 mg/day, OS, month 0 (April 2016), baseline): RI > 20 minutes
- RI (rod intercept time) (AMD patients [1]; Patient #7, atorvastatin 10 to 20 mg/day, OS, month 27 (July 2018)): RI > 20 minutes
- VA (visual acuity) (AMD patients [2]; Patient #1, atorvastatin 20 to 80 mg/day, OD, month 0 (July 2013), baseline): VA 20/25
- VA (visual acuity) (AMD patients [2]; Patient #1, atorvastatin 20 to 80 mg/day, OD, month 59 (June 2018)): VA 20/25
- VA (visual acuity) (AMD patients [2]; Patient #1, atorvastatin 20 to 80 mg/day, OS, month 0 (July 2013), baseline): VA 20/32
- VA (visual acuity) (AMD patients [2]; Patient #1, atorvastatin 20 to 80 mg/day, OS, month 59 (June 2018)): VA 20/25
- VA (visual acuity) (AMD patients [2]; Patient #2, atorvastatin 80 mg/day, OD, month 64 (May 2018)): VA 20/30
- VA (visual acuity) (AMD patients [2]; Patient #2, atorvastatin 80 mg/day, OS, month 64 (May 2018)): VA 20/20
- VA (visual acuity) (AMD patients [2]; [4]): VA 20/200
- VA (visual acuity) (AMD patients [2]; Patient #4, atorvastatin 80 mg/day, OD, month 3 (August 2018)): VA 20/200
- VA (visual acuity) (AMD patients [2]; [5]): VA 20/20
- VA (visual acuity) (AMD patients [2]; Patient #4, atorvastatin 80 mg/day, OS, month 3 (August 2018)): VA 20/20
- VA (visual acuity) (AMD patients [2]; Patient #5, atorvastatin 80 mg/day from January 2014, OD, month 0 (January 2014), baseline): VA 20/25
- VA (visual acuity) (AMD patients [2]; Patient #5, atorvastatin 80 mg/day from January 2014, OS, month 0 (January 2014), baseline): VA 20/25
- Drusen resolution (AMD patients [3]; Example 1: adult female, intermediate AMD, oral atorvastatin increasing to 80 mg per day over six months): eventual resolution of the drusen
- Drusen resolution (ophthalmic examination, fundus photography, OCT) (AMD patients [3]; Example 2: adult person, intermediate AMD, oral atorvastatin 10 to 80 mg per day, month 15): substantially complete resolution of the drusen
- Average retinal thickness (AMD patients [3]; left eye, August 2016 OCT): 193 µm
- Average total volume (retina) (AMD patients [3]; left eye, August 2016 OCT): 8.2 mm^3
- Retinal thickness, maximum (AMD patients [3]; left eye, August 2016 OCT): 291 µm
- Retinal thickness, minimum (AMD patients [3]; left eye, August 2016 OCT): 191 µm
- Average retinal thickness (AMD patients [3]; left eye, February 2016 OCT): 364 µm
- Average total volume (retina) (AMD patients [3]; left eye, February 2016 OCT): 8.45 mm^3
- Retinal thickness, maximum (AMD patients [3]; left eye, February 2016 OCT): 457 µm
- Retinal thickness, minimum (AMD patients [3]; left eye, February 2016 OCT): 217 µm
- Average retinal thickness (AMD patients [3]; right eye, August 2015 OCT): 179 µm
- Average total volume (retina) (AMD patients [3]; right eye, August 2015 OCT): 8.49 mm^3
- Retinal thickness, maximum (AMD patients [3]; right eye, August 2015 OCT): 461 µm
- Retinal thickness, minimum (AMD patients [3]; right eye, August 2015 OCT): 176 µm
- Average retinal thickness (AMD patients [3]; right eye, December 2015 OCT): 199 µm
- Average total volume (retina) (AMD patients [3]; right eye, December 2015 OCT): 8.23 mm^3
- Retinal thickness, maximum (AMD patients [3]; right eye, December 2015 OCT): 332 µm
- Retinal thickness, minimum (AMD patients [3]; right eye, December 2015 OCT): 170 µm
- OCT retinal imaging finding (AMD patients [3]; pravastatin 20 mg/day from April 2018, left eye): development of a PED
- OCT retinal imaging finding (AMD patients [3]; pravastatin 20 mg/day from April 2018, right eye): increased drusen accumulation with possible increase in drusen size
- Drusen resolution (AMD patients [3]; Patient #1, atorvastatin 20 to 80 mg/day, OU, month 59 (June 2018)): No indication of drusen resolution OU
- Decrease in retina volume (AMD patients [3]; Patient #2, atorvastatin 80 mg/day, OD, month 35 (December 2015 vs August 2015)): volume of 0.26 mm^3
- Decrease in retina volume (AMD patients [3]; Patient #2, atorvastatin 80 mg/day, OS, month 43 (August 2016 vs February 2016)): volume of 0.25 mm^3
- SDD resolution (AMD patients [3]; Patient #3, atorvastatin 80 mg/day, OU, month 19 (May 2018)): No indication of SDD resolution OU
- Drusen resolution (AMD patients [3]; Patient #4, atorvastatin 80 mg/day, OU, month 3 (August 2018)): No indication of drusen resolution OU
- Drusen resolution (AMD patients [3]; Patient #5, atorvastatin 80 mg/day (suspended January 2015-February 2016), then 20 mg/day, pravastatin 20 mg/day from April 2018, OU, month 51 (April 2018)): No indication of drusen resolution OU
- Decrease in retina volume (AMD patients [3]; [6]): volume of 0.09 mm^3
- Decrease in retina volume (AMD patients [3]; Patient #6, atorvastatin 80 mg/day, OS, month 9 (August 2018)): volume of 0.1 mm^3
- Drusen resolution (AMD patients [3]; Patient #6, atorvastatin 80 mg/day, OU, month 9 (August 2018)): Initial signs of drusen resolution OU
- Drusen resolution (AMD patients [3]; Patient #7, atorvastatin 10 to 20 mg/day, OU, month 27 (July 2018)): No indication of drusen resolution OU
